Laboratory results taken from patent US7314858B2, “Retrocyclins: antiviral and antimicrobial peptides” (priority 2001, dated 2008).
Converted amounts (≈) assume the structure as drawn. “Also recorded” adds a separate entry of the source. Read-outs that look alike come from different tables or passages of the source. Where a SMILES comes first, the peptide text is derived from it. Bridges are numbered along the chain shown (N, C = ends).

Columns and labels:
primary HIV-1 isolates = details: for IC50: read-out: mean IC50; for IC50 / mean IC50: seven subtype B strains
Source text: Viral isolates. Primary HIV-1 isolates were obtained from Institutional Review Board-approved Centers for Disease Control and Prevention (CDC) Studies or from the National Institutes of Health Research and Reference Reagent Program and World Health Organization collaborative network. Detailed characteristics of the CDC isolates, including subtype determination based on the envelope region, and co-receptor usage using GHOST cell lines have been described elsewhere. For viruses obtained from the NIH Research and Reference Reagent Program, the reported subtype and co-receptor data were used as supplied. Viral stocks were generated by infecting CD8-depleted normal human peripheral blood mononuclear cells. After filtration through 0.22-μm filters, aliquots of the stocks were stored at −70° C. until used.
Reporter gene-based viral replication assay. JC53-BL cells, an HIV-1 reporter cell line derived from HeLa cells that expresses high levels of CD4 and the HIV co-receptors CXCR4 and CCR5, were a gift of Tranzyme Inc. (Birmingham, Ala.). The JC53-BL cells contain cassettes for luciferase and β-galactosidase, each driven by the HIV-1 LTR. HIV infection (tat production) can be detected either by measuring luciferase activity or by counting blue foci after staining the cells with “X-Gal” (5-Bromo-4-chloro-3-indolyl β-D-galactopyranoside), as described elsewhere in detail. The JC53-BL cells were maintained in Dulbecco's modified Eagle medium supplemented with 10% fetal calf serum. (HyClone, Logan, Utah), 2 mM glutamine (Gibco), 100 units per ml penicillin G and 100 μg/ml streptomycin (GIBCO™, Invitrogen Corp., San Diego, Calif.). Viral titers were determined by adding serial dilutions of the virus stocks, in triplicate, to wells containing 20,000 JC53-BL cells, after supplementing the above medium with 40 μg/ml DEAE (diethylaminoethyl)-dextran. After a 48 hour incubation at 37° C. in 5% CO2, the cells were fixed and stained for β galactosidase, and the blue foci were counted with a light microscope. Multiplicity of infection (MOI) values were taken from the infectious unit data.
In vitro infections were carried out in the presence or absence of θ-defensin peptides. Briefly, JC53-BL cells were harvested from T-150 flasks approximately 18 hours prior to starting the assay with 0.1 mM EDTA in 0.017 M PBS, pH 7.4. The cells were washed and transferred to sterile white 96-well plates (Thermo Labsystems, Franklin, Mass.) at a density of 20,000 cells in 50 μl of medium. […] After this 3-hour preincubation with peptides, viruses were added in media containing 40 μg/ml DEAE-dextran. The final volume was 200 μl per well, and the multiplicity of infection (viruses/cell) ranged from 0.009 to 0.65. After the plates had incubated at 37° C. in 5% CO2 for 48 hours, luciferase activity was measured with the Steady-Glo Luciferase Assay System (Promega, Madison, Wis.), using the manufacturer's lysis protocol. Relative light intensity was measured with a Tecan luminometer running Magellan software (Tecan, Research Triangle Park, N.C.) and reported as relative light units (RLU). Each plate contained three sets of quadruplicate controls: media-only (background), virus-only (peptide-free), and recombinant luciferase. Samples were run in duplicate and the % inhibition was calculated from the mean values using the formula: % Inhibition=1−(average RLU peptide+virus wells/average RLU virus only wells)×100.
Fifty-percent inhibitory concentration values (IC50) were calculated using the predicted exponential growth function in Microsoft Excel, which uses known x-y values to estimate a given x value (in this case concentration of peptide) that would correspond to a given y value (in this case IC50). Statistical comparisons were by paired t-tests, unless otherwise noted.

HSV-1 = experiment: HSV inactivation microplate assay on ME-180 cells (MTT); format: cell-based, herpes simplex virus, type 1; details: 2-50 μg/ml, 2 hrs with virus, 72 hrs culture
Method: FIG. 14. Inactivation of HSV-1 and HSV-2 by retrocyclin and RC-101. Retrocyclin (left panel) and RC-101 (right panel) at the indicated concentrations were incubated with herpes simplex virus, type 1 (HSV-1) or HSV-2 for 2 hrs and then added to ME-180 cell monolayers. Cells were incubated at 37° C. for 72 hrs, and cytotoxicity was measured with an MTT kit.
Some retrocyclins are slightly active against herpes simplex virus (HSV). To determine if the activity of retrocyclin against HIV-1 was specific or representative of a more global antiviral effect, it was tested its ability to prevent HSV infection in vitro. A quantitative microplate assay was used to screen retrocyclin and retrocyclin-congeners for their ability to inactivate HSV type 1 (HSV-1) and HSV-2. The assay utilized small amounts of peptide and simultaneously evaluated for peptide-induced cytotoxicity. In brief, final peptide concentrations of 2-50 μg/ml were incubated with virus stocks for 2 hrs and added directly to ME-180 human cervical carcinoma cells. Cultures were incubated at 37° C. for 72 hrs and cytotoxicity was measured using a 3-(4,5-dimethylthiazon-2-yl)-2,5-diphenyltetrazolium bromide (MTT) cell proliferation kit (Boehringer-Mannheim, Germany). Calculations to assess antiviral activity and compute “percent protection” are delineated in (90).

human red blood cells = experiment: Hemagglutination of washed red blood cells in PBS; details: washed human red blood cells in PBS
Method: Hemagglutination was tested by adding the stated concentration of peptide to a well comprising red blood cells (shown in FIG. 22). When the RBC are agglutinated, they clump together and settle rapidly and form a diffuse circle covering much of the bottom of the well. In the absence of agglutination, they settle more slowly and form a compact red button in the center of the well.
Sequences of retrocyclin-related peptides that were synthesized and either tested for activity against HIV-1 (see FIGS. 21A and 21B) and/or for their ability to cause human red blood cells to hemagglutinate or both. NT signifies not tested. Linear sequences appear in the table, but all peptides were cyclic and contained three intramolecular disulfide bonds. Hemagglutination of washed human red blood cells was tested in PBS, at peptide concentrations of 50, 25, 12.5 6.25 and 3.12 μg/ml. The lowest concentrations that caused hemagglutination are shown. Peptide concentrations were determined by amino acid analysis or by AUC (area under the curve) RP-HPLC analysis with reference to amino-acid analyzed standards.

[1] = isolate 92BR023, subtype C/B, R5
[2] = isolate 92HT593, Haiti, subtype B, X4
[3] = isolate 92RW009, subtype C/A, R5/X4
[4] = isolate 92UG005, Uganda, subtype D, R5
[5] = isolate 93TH060, Thailand, CRF01-AE, R5
[6] = isolate 93UG053, Uganda, subtype D, R5
[7] = isolate 93US151, USA, subtype B, X4
[8] = isolate 98CN009, China, subtype C, R5
[9] = isolate 98TZ017, Tanzania, subtype C, R5
[10] = isolate 5157-1326, USA, subtype B, R5
[11] = isolate 192431, Nigeria, subtype C, X4
[12] = isolate 193358, Nigeria, subtype C, R5
[13] = isolate 196531, Cameroon, subtype A, R5
[14] = isolate 196554, Senegal, subtype A, R5
[15] = isolate HM14, Thailand, CRF01-AE, X4

## CC[C@H](C)[C@@H]1NC(=O)CNC(=O)[C@H](CCCCN)NC(=O)CNC(=O)[C@@H]2CSSC[C@H](NC1=O)C(=O)N[C@@H](CCCNC(=N)N)C(=O)N[C@H]1CSSC[C@H](NC(=O)[C@H](CCCNC(=N)N)NC(=O)[C@@H]3CSSC[C@H](NC(=O)[C@H]([C@@H](C)CC)NC1=O)C(=O)NCC(=O)N[C@@H](CCCNC(=N)N)C(=O)NCC(=O)N[C@@H]([C@@H](C)CC)C(=O)N3)C(=O)N[C@@H]([C@@H](C)CC)C(=O)N2 [RC-101, R9K-Retrocyclin]
Primary HIV-1 isolates
  IC50 (mean±SEM, n=8): 2.93 ± 0.95 µg/mL (≈ 1.55 µM)
  protective activity compared with retrocyclin-1: more active than retrocyclin-1
  IC50: < 660 nM
  mean IC50: < 1.25 µg/mL
Primary HIV-1 isolates; [1]
  IC50 Concentrations: 3.04 µg/mL (≈ 1.61 µM)
Primary HIV-1 isolates; [2]
  IC50 Concentrations: 0.76 µg/mL (≈ 0.402 µM)
Primary HIV-1 isolates; [3]
  IC50 Concentrations: 2.72 µg/mL (≈ 1.44 µM)
Primary HIV-1 isolates; [4]
  IC50 Concentrations: 1 µg/mL (≈ 0.529 µM)
Primary HIV-1 isolates; [5]
  IC50 Concentrations: 2.15 µg/mL (≈ 1.14 µM)
Primary HIV-1 isolates; [6]
  IC50 Concentrations: 1.54 µg/mL (≈ 0.815 µM)
Primary HIV-1 isolates; [7]
  IC50 Concentrations: 0.49 µg/mL (≈ 0.259 µM)
Primary HIV-1 isolates; [8]
  IC50 Concentrations: 8.53 µg/mL (≈ 4.51 µM)
Primary HIV-1 isolates; [9]
  IC50 Concentrations: 4.87 µg/mL (≈ 2.58 µM)
Primary HIV-1 isolates; [10]
  IC50 Concentrations: 3.59 µg/mL (≈ 1.9 µM)
Primary HIV-1 isolates; [11]
  IC50 Concentrations: 0.54 µg/mL (≈ 0.286 µM)
Primary HIV-1 isolates; [12]
  IC50 Concentrations: 2.75 µg/mL (≈ 1.45 µM)
Primary HIV-1 isolates; [13]
  IC50 Concentrations: 2.65 µg/mL (≈ 1.4 µM)
Primary HIV-1 isolates; [14]
  IC50 Concentrations: 0.51 µg/mL (≈ 0.27 µM)
Primary HIV-1 isolates; [15]
  IC50 Concentrations: 0.84 µg/mL (≈ 0.444 µM)
Primary HIV-1 isolates; subtype D strains, 1.25, 2.5, 5 and 10 μg/ml
  protective activity compared with retrocyclin-1: more active than retrocyclin-1
Primary HIV-1 isolates; subtype G and various recombinant viruses
  protective activity compared with retrocyclin-1: greater protection than retrocyclin-1
HSV-1
  protection against HSV-1: modestly protective
Human red blood cells
  Hemagglutination seen at a concentration of (lowest concentration that caused hemagglutination): > 200 µg/mL
  hemagglutination compared with retrocyclin: much less hemagglutination than retrocyclin; also recorded: less hemagglutination than retrocyclin-1 or retrocyclin-2

## CC[C@H](C)[C@@H]1NC(=O)CNC(=O)[C@H](CCCNC(=N)N)NC(=O)CNC(=O)[C@@H]2CSSC[C@H](NC1=O)C(=O)N[C@@H](CCCNC(=N)N)C(=O)N[C@H]1CSSC[C@H](NC(=O)[C@H](CCCNC(=N)N)NC(=O)[C@@H]3CSSC[C@H](NC(=O)[C@H]([C@@H](C)CC)NC1=O)C(=O)NCC(=O)N[C@@H](CCCNC(=N)N)C(=O)NCC(=O)N[C@@H]([C@@H](C)CC)C(=O)N3)C(=O)N[C@@H]([C@@H](C)CC)C(=O)N2 [RC-100, Retrocyclin] (cyclo(GICRCICGRGICRCICGR); disulfide 3-16, 5-14, 7-12)
Primary HIV-1 isolates
  IC50 (mean±SEM, n=8): 7.79 ± 1.16 µg/mL (≈ 4.06 µM)
  IC50: ~2600 nM
  mean IC50: approximately 5.0 μg/ml
Primary HIV-1 isolates; [1]
  IC50 Concentrations: 4.71 µg/mL (≈ 2.46 µM)
Primary HIV-1 isolates; [2]
  IC50 Concentrations: 5.73 µg/mL (≈ 2.99 µM)
Primary HIV-1 isolates; [3]
  IC50 Concentrations: 8.72 µg/mL (≈ 4.55 µM)
Primary HIV-1 isolates; isolate 92RW024, subtype D/A, R5
  IC50 Concentrations: 7.78 µg/mL (≈ 4.06 µM)
Primary HIV-1 isolates; [4]
  IC50 Concentrations: 5.18 µg/mL (≈ 2.7 µM)
Primary HIV-1 isolates; isolate 92UG037, Uganda, subtype A, R5
  IC50 Concentrations: 1.44 µg/mL (≈ 0.751 µM)
Primary HIV-1 isolates; isolate 92US714, USA, subtype B, R5
  IC50 Concentrations: >10 µg/mL
Primary HIV-1 isolates; isolate 92US727, USA, subtype B, R5
  IC50 Concentrations: 6.46 µg/mL (≈ 3.37 µM)
Primary HIV-1 isolates; [5]
  IC50 Concentrations: 7.39 µg/mL (≈ 3.85 µM)
Primary HIV-1 isolates; [6]
  IC50 Concentrations: 6.38 µg/mL (≈ 3.33 µM)
Primary HIV-1 isolates; isolate 93UG059, subtype A/D, X4
  IC50 Concentrations: 6.65 µg/mL (≈ 3.47 µM)
Primary HIV-1 isolates; [7]
  IC50 Concentrations: 1.69 µg/mL (≈ 0.881 µM)
Primary HIV-1 isolates; isolate 94UG114, Uganda, subtype D, R5
  IC50 Concentrations: 3.69 µg/mL (≈ 1.92 µM)
Primary HIV-1 isolates; [8]
  IC50 Concentrations: >10 µg/mL
Primary HIV-1 isolates; [9]
  IC50 Concentrations: >10 µg/mL
Primary HIV-1 isolates; isolate 5148-1382, USA, subtype B, R5
  IC50 Concentrations: 5.71 µg/mL (≈ 2.98 µM)
Primary HIV-1 isolates; [10]
  IC50 Concentrations: 4.64 µg/mL (≈ 2.42 µM)
Primary HIV-1 isolates; isolate 5157-35097, USA, subtype B, R5X4
  IC50 Concentrations: 6.29 µg/mL (≈ 3.28 µM)
Primary HIV-1 isolates; [11]
  IC50 Concentrations: 5.18 µg/mL (≈ 2.7 µM)
Primary HIV-1 isolates; isolate 193317, Nigeria, subtype A, X4
  IC50 Concentrations: >10 µg/mL
Primary HIV-1 isolates; [12]
  IC50 Concentrations: >10 µg/mL
Primary HIV-1 isolates; [13]
  IC50 Concentrations: >10 µg/mL
Primary HIV-1 isolates; [14]
  IC50 Concentrations: 5.73 µg/mL (≈ 2.99 µM)
Primary HIV-1 isolates; [15]
  IC50 Concentrations: 3.09 µg/mL (≈ 1.61 µM)
Primary HIV-1 isolates; isolate RU132, Russia, subtype G, R5
  IC50 Concentrations: 5.27 µg/mL (≈ 2.75 µM)
Primary HIV-1 isolates; isolate RU570, subtype G, R5
  IC50 Concentrations: 8.63 µg/mL (≈ 4.5 µM)
HSV-1
  protection against HSV-1: not HSV-1
Human red blood cells
  Hemagglutination seen at a concentration of (lowest concentration that caused hemagglutination): 6 to 12.5 µg/mL
